Test: Concentrations of chemopreventive compounds and metabolites in dog serum by LC-MS/MS
Type: in vivo
Description: Serum was isolated from whole blood obtained during the two phases of the trial and analysed by LC-MS/MS.
Whole blood (6 ml) was collected from each canine subject at the end of the first and second phases of the study. Blood was obtained by venipuncture from either the cephalic or jugular vein (typically with an 18-20 gauge needle attached to a 10 ml syringe). Manual restraint and aseptic techniques were used. The blood from each dog was placed in labelled collection tubes (2 ml in lavender EDTA collection tubes, 1 ml in green lithium heparin collection tubes, and 3 ml in red silicone coated tubes). The lavender tubes were inverted and used to run Complete Blood Counts (CBC) and for isolation of lymphocytes, the green tubes were inverted and used to run Comprehensive Chemistry Blood Profiles (CCBP), and the blood within the red tubes were allowed to clot, and then centrifuged for 15 min at 3400 rpm to obtain serum. The serum was frozen prior to analysis by LC-MS/MS. The CBC and CCBPs were run on Abaxis™ VetScan machines, particularly the VS2 and HMS.
Liquid-liquid extraction was used to prepare dog serum for mass spectrometric analysis. Briefly, 300 μl of serum was mixed with 900 μl of ice-cold acetonitrile. Each sample was vortex mixed for 20 sec and then centrifuged for 10 min at 13,000×g. The supernatant was removed and evaporated to dryness under a stream of nitrogen, and each extract was reconstituted in 100 μl of acetonitrile/water (20:80, v/v) prior to analysis using LC-MS/MS.
Both instruments were equipped with negative ion electrospray and interfaced to Shimadzu HPLC systems (Prominence Ark. or Nexera, respectively). A Waters (Milford, Mass.) XBridge C18 column (2.1×100 mm; 2.5 μm) was used for chromatographic separations. The solvent system consisted of a 5-min linear gradient from 10% to 90% acetonitrile in water at a flow rate of 400 μl/min. The injection volume was 10 μl.
For quantitative analysis, selected reaction monitoring (SRM) was used with collision-induced dissociation and argon as the collision gas. Deprotonated molecules of each analyte were used as precursor ions, and the SRM transitions of the two most abundant product ions were selected as quantifiers and qualifiers, respectively. In some cases, only one SRM transition (quantifier) was used due to the low abundances of other fragment ions. […] The SRM transitions for genistein were m/z 269 to 89 and m/z 269 to 187, and the SRM transitions for genistein glucuronide and genistein sulfate were m/z 445 to 269 and m/z 349 to 269, respectively. Quercetin was measured using the SRM transitions of m/z 301 to 151 and m/z 301 to 179, and its glucuronide and sulfate metabolites were monitored using the transitions of m/z 477 to 301 and m/z 381 to 301, respectively. Synthetic isopentyl naringenin was used as an internal standard (SRM transition m/z 341 to 119).

COc1cc(/C=C/C(=O)CC(=O)/C=C/c2ccc(O[C@@H]3O[C@H](C(=O)O)[C@@H](O)[C@H](O)[C@H]3O)c(OC)c2)ccc1O [Curcumin glucuronide]
detection in dog serum (in words) (dog, in vivo): detected at low levels in serum of two dogs

O=c1oc2c(O)c(O)cc3c(=O)oc4c(O)c(O)cc1c4c23 [Ellagic acid]
detection in dog serum (in words) (dog, in vivo): No ellagic acid or curcumin was detected in serum

O=c1c(-c2ccc(O)cc2)coc2cc(O)cc(O)c12 [Genistein]
detection in dog serum (in words) (second phase, after 3 weeks of two biscuits/day): no unconjugated genistein was detected

O=c1c(O)c(-c2ccc(O)c(O)c2)oc2cc(O)cc(O)c12 [Quercetin]
Concentration in serum, Second phase (dog, in vivo, 3 weeks): 2 ± 1 ng/mL

Oc1ccc(C=Cc2cc(O)cc(O)c2)cc1 [Resveratrol]
concentration at 3 weeks (dog, in vivo): 19.3 ± 11 ng/mL

O=S(=O)(O)Oc1cc(O)cc(/C=C\c2ccc(O)cc2)c1 [cis-Resveratrol-3-sulfate]
concentration at 3 weeks (dog, in vivo): 13.6 ± 5.27 ng/mL

O=S(=O)(O)Oc1cc(O)cc(C=Cc2ccc(O)cc2)c1 [resveratrol-3-sulfate]
detection in dog serum (in words) (dog, in vivo): most abundant form of resveratrol in dog serum

O=S(=O)(O)Oc1ccc(/C=C/c2cc(O)cc(O)c2)cc1 [trans-Resveratrol-4′-sulfate]
concentration at 3 weeks (dog, in vivo): 44.4 ± 12.2 ng/mL
